Patent US20250129135A1, “Multi-Agonist and Use Thereof” (priority 2021, published 2025)
Starred links: 1 amine or outer side, 2 acyl side, 3 side chain; linkers in the order of their positions; H or OH if unused. Non-standard residues stand in square brackets, D forms with d. Residues, ends and D or L forms follow the SMILES beside them. Groups on a side chain read outwards from the residue. *: point of attachment. C20 diacid = O=C(O)CCCCCCCCCCCCCCCCCCC(=O)*; γGlu = O=C(O)[C@H](CCC(=O)[*:2])N[*:1]; αMeF = C[C@](N)(Cc1ccccc1)C(=O)O; αMeL = CC(C)C[C@](C)(N)C(=O)O; AEEA = NCCOCCOCC(=O)O; Ac3c = NC1(C(=O)O)CC1; Aib = CC(C)(N)C(=O)O

Assays:
Human GIP R = molecular target: T1, Human GIP R (Homo sapiens, UniProt P48546); assay: cAMP (HTRF) activity in CHO cells stably overexpressing GIP receptor; format: cell-based; conditions: for Human GIP R Rel. A (Relative Activity): EC50 of human GIP / EC50 of compound; for EC50: stable transfected cell cAMP activity, at least 3 independent tests
T1 construct: expressed in transfected cells; host or cells: CHO
T1 sequence (P48546 22-466): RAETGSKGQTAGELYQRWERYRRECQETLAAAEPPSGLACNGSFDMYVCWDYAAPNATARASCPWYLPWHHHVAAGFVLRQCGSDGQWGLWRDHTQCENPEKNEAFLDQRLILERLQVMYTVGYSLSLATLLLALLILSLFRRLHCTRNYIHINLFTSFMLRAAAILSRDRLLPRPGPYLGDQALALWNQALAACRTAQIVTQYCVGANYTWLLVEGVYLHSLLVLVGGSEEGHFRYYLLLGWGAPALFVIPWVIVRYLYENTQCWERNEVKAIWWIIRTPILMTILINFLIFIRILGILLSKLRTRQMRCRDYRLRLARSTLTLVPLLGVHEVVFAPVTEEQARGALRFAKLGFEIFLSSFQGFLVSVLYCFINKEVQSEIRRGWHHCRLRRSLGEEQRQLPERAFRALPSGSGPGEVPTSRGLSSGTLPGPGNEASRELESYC
Description: (§1) By measuring the cAMP signal response levels of the aforementioned cells, the agonistic activity of individual compound towards the corresponding receptor was determined. The intracellular cAMP content was measured using reagent kit available from Cisbio Corp. based on HTRF (homogeneous time-resolved fluorescence) technology.
(§2) The cell fluid was transferred to 10 ml of HBSS for resuspension, and centrifuged at 1000 rpm for 5 minutes at room temperature.
(§3) 10 μL cell suspension was added to each well in the 384 well plate. […] Using the ECHO liquid transfer system, 100 nL of the prepared compound solution was added to the corresponding cell suspensions in the 384 well plate, rotated and shaken at 1000 rpm for 1 minute to mix evenly, and then incubated at room temperature for 60 minutes. 10 μL of detection reagent was added to each well after drug incubation was completed, and incubation was performed in the kit at room temperature for 60 minutes. […] GraphPad Prism 5 plotting software was used to create compound concentration response curves and EC50 (nM) values was calculated.

[1] = system: human primary liver cells; format: cell-based; conditions: for Rel. A (Relative Activity) on human primary liver cells: relative to GCG
Description: The cAMP levels produced by compounds on human primary liver cells were determined in this experiment. Human primary liver cells were purchased from Lonza (cell product number HUCPG).
Frozen human primary liver cells were placed in a 37° C. constant temperature water bath for rapid thawing and recovery. The cell solution was transferred to 10 ml of HBSS for resuspension, and centrifuged at 1000 rpm for 5 minutes at room temperature.
(§4) 10 μL cell suspension was added to each well in the 384 well plate. […] Using the ECHO liquid transfer system, 100 nL of the prepared compound solution was added to the corresponding cell suspensions in the 384 well plate, rotated and shaken at 1000 rpm for 1 minute to mix evenly, and then incubated at room temperature for 60 minutes. 10 μL of detection reagent was added to each well after drug incubation was completed, and incubation was performed for 60 minutes.

Human GLP-1R = Human GLP-1R (Homo sapiens, UniProt P43220); assay: cAMP (HTRF) activity in HEK-293 cells stably overexpressing human GLP-1 receptor; format: cell-based; set-up: expressed in transfected cells; host or cells: HEK-293; conditions: for Human GLP-1R Rel. A (Relative Activity): EC50 of human GLP-1 (7-37) / EC50 of compound; for EC50: stable transfected cell cAMP activity, at least 3 independent tests
Sequence of Human GLP-1R (P43220 24-463): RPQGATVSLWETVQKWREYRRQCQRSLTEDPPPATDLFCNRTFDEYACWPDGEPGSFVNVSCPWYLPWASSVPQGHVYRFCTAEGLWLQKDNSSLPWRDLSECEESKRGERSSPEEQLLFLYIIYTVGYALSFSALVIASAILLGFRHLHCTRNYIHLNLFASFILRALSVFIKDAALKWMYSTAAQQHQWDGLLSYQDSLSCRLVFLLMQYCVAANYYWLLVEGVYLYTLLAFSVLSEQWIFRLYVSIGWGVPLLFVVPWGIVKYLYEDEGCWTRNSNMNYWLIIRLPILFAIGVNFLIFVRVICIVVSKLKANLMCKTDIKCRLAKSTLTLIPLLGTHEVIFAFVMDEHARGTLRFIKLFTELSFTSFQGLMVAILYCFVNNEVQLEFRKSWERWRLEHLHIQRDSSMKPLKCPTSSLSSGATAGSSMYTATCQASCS
Description: as §1, §2, §3

Human GCG R = molecular target: T2, Human GCG R (Homo sapiens, UniProt P47871); assay: cAMP (HTRF) activity in HEK-293 cells stably overexpressing human GCG receptor; format: cell-based; conditions: EC50 of human GCG / EC50 of compound
T2 construct: expressed in transfected cells; host or cells: HEK-293
T2 sequence (P47871 26-477): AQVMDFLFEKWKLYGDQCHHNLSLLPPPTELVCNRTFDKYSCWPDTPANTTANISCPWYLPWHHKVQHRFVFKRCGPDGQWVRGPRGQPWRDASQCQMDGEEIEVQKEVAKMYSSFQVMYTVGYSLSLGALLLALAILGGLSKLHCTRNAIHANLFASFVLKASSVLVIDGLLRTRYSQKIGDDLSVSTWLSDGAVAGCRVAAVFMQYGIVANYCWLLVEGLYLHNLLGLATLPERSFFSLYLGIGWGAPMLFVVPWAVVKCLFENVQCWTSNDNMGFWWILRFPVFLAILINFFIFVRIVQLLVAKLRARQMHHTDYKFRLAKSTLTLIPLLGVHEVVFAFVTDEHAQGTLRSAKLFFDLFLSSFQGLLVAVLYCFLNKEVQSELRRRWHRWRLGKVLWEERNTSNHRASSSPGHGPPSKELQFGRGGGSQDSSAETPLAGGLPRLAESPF
Description: as §1, §2, §3

3T3-L1 adipocytes = conditions: for Rel. A (Relative Activity) on 3T3-L1 adipocyte: relative to GIP
Description: Mouse 3T3-L1 precursor adipocytes can be induced to differentiate into mature adipocytes. […] After the cells became full and contacted with each other, DMEM differentiation medium containing 20% FBS, 0.5 mM IBMX, 0.4 ug/mL dexamethasone, and 5 ug/mL insulin was used to induce differentiation of 3T3-L1 adipocyte. After 5 days of induction and cultivation, DMEM medium containing […], 4 ug/ml insulin, and 10 uM rosiglitazone was used to continue induction and cultivation for 3 days. Then, DMEM medium containing 10% FBS was used to continue cultivation for 2-3 days to induce mature 3T3-L1 adipocytes.
The cAMP level produced by the compound on 3T3-L1 adipocytes was determined in this experiment. The tested compound solution was diluted step by step according to a concentration gradient of 3 times, to obtain a total of 10 series of concentration solutions. The solutions were added to induced mature 3T3-L1 adipocytes and incubated at room temperature for 60 minutes. 10 μL detection reagent in the kit was added to each well after drug incubation, and incubated at room temperature for another 60 minutes. […] GraphPad Prism 5 plotting software was used to create compound concentration-effect curves and calculation was performed.

RIN-m5F cells = format: cell-based, rat; conditions: for Rel. A (Relative Activity) on RIN-m5F: relative to GLP-1(7-37)
Description: This experiment measured the cAMP level produced by the compound on RIN-mF cells.
Frozen […] cells were placed in a 37° C. constant temperature water bath for rapid thawing and recovery. The cell solution was transferred to 10 ml of HBSS for resuspension, and centrifuged at 1000 rpm for 5 minutes at room temperature.
as §4, with “to each wells after drug” for “to each well after drug”

Structure (SMILES) | Human GIP R Rel. A (Relative Activity) (Human GIP R) [%] | EC50 [1] [nM] | Rel. A (Relative Activity) on human primary liver cells [1] [%] | Human GLP-1R Rel. A (Relative Activity) (Human GLP-1R) [%] | EC50 (Human GLP-1R) [nM] | Human GCG R Rel. A (Relative Activity) (Human GCG R) [%] | EC50 (3T3-L1 adipocytes) [nM] | Rel. A (Relative Activity) on 3T3-L1 adipocyte (3T3-L1 adipocytes) [%] | EC50 (RIN-m5F cells) [nM] | Rel. A (Relative Activity) on RIN-m5F (RIN-m5F cells) [%] | EC50 (Human GIP R) [nM]
CC[C@H](C)[C@H](NC(=O)[C@H](Cc1ccccc1)NC(=O)[C@H](C)NC(=O)C(C)(C)NC(=O)[C@H](CCC(N)=O)NC(=O)[C@H](C)NC(=O)[C@H](CCCCNC(=O)COCCOCCNC(=O)COCCOCCNC(=O)CC[C@H](NC(=O)CCCCCCCCCCCCCCCCCCC(=O)O)C(=O)O)NC(=O)[C@H](CCCCN)NC(=O)[C@H](CC(=O)O)NC(=O)[C@H](CC(C)C)NC(=O)[C@H](Cc1ccccc1)NC(=O)[C@@H](NC(=O)[C@H](CO)NC(=O)[C@H](Cc1ccc(O)cc1)NC(=O)[C@H](CC(=O)O)NC(=O)[C@H](CO)NC(=O)[C@@H](NC(=O)[C@](C)(Cc1ccccc1)NC(=O)[C@@H](NC(=O)CNC(=O)[C@H](CCC(N)=O)NC(=O)C(C)(C)NC(=O)[C@@H](N)Cc1ccc(O)cc1)[C@@H](C)O)[C@@H](C)O)[C@@H](C)CC)C(=O)N[C@@H](CCC(=O)O)C(=O)N[C@@H](Cc1ccc(O)cc1)C(=O)N[C@@H](CC(C)C)C(=O)N[C@@H](CC(C)C)C(=O)N[C@@H](CCC(=O)O)C(=O)N[C@@H](CO)C(=O)NC(C)(C)C(=O)N1CCC[C@H]1C(=O)N[C@@H](CO)C(=O)N[C@@H](CO)C(=O)NCC(=O)N[C@@H](C)C(=O)N1CCC[C@H]1C(=O)N1CCC[C@H]1C(=O)NC1(C(=O)N[C@@H](CO)C(N)=O)CC1 [Compound 29] (H-Y[Aib]QGT[αMeF]TSDYSIFLDKK([AEEA-AEEA-γGlu-C20 diacid])AQ[Aib]AFIEYLLES[Aib]PSSGAPP[Ac3c]S-NH2; N-terminus assumed) | 58.58 | 2.93 | 132.89 | 275.00 | 0.016 | 82.61 | 20.7 | 18.41 | 0.633 | 163.03 | –
CC[C@H](C)[C@H](NC(=O)[C@H](Cc1ccccc1)NC(=O)[C@H](C)NC(=O)C(C)(C)NC(=O)[C@H](CCC(N)=O)NC(=O)[C@H](C)NC(=O)[C@H](CCCCNC(=O)COCCOCCNC(=O)COCCOCCNC(=O)CC[C@H](NC(=O)CCCCCCCCCCCCCCCCCCC(=O)O)C(=O)O)NC(=O)[C@H](CCCCN)NC(=O)[C@H](CC(=O)O)NC(=O)[C@H](CC(C)C)NC(=O)[C@](C)(CC(C)C)NC(=O)[C@@H](NC(=O)[C@H](CO)NC(=O)[C@H](Cc1ccc(O)cc1)NC(=O)[C@H](CC(=O)O)NC(=O)[C@H](CO)NC(=O)[C@@H](NC(=O)[C@](C)(Cc1ccccc1)NC(=O)[C@@H](NC(=O)CNC(=O)[C@H](CCC(N)=O)NC(=O)C(C)(C)NC(=O)[C@@H](N)Cc1ccc(O)cc1)[C@@H](C)O)[C@@H](C)O)[C@@H](C)CC)C(=O)N[C@@H](CCC(=O)O)C(=O)N[C@@H](Cc1ccccc1)C(=O)N[C@@H](CC(C)C)C(=O)N[C@@H](CC(C)C)C(=O)N[C@@H](CCC(=O)O)C(=O)N[C@H](C(=O)NC(C)(C)C(=O)N1CCC[C@H]1C(=O)N[C@@H](CO)C(=O)N[C@@H](CO)C(=O)NCC(=O)N[C@@H](C)C(=O)N1CCC[C@H]1C(=O)N1CCC[C@H]1C(=O)NC1(C(=O)N[C@@H](CO)C(N)=O)CC1)[C@@H](C)O [Compound 30] (H-Y[Aib]QGT[αMeF]TSDYSI[αMeL]LDKK([AEEA-AEEA-γGlu-C20 diacid])AQ[Aib]AFIEFLLET[Aib]PSSGAPP[Ac3c]S-NH2; N-terminus assumed) | 1206.67 | 7.83 | 49.73 | 220.00 | 0.02 | 32.95 | 7.08 | 53.67 | 0.878 | 117.54 | 0.015
CC[C@H](C)[C@H](NC(=O)[C@H](Cc1ccccc1)NC(=O)[C@H](C)NC(=O)C(C)(C)NC(=O)[C@H](CCC(N)=O)NC(=O)[C@H](C)NC(=O)[C@H](CCCCNC(=O)COCCOCCNC(=O)COCCOCCNC(=O)CC[C@H](NC(=O)CCCCCCCCCCCCCCCCCCC(=O)O)C(=O)O)NC(=O)[C@H](CCCCN)NC(=O)[C@H](CC(=O)O)NC(=O)[C@H](CC(C)C)NC(=O)[C@](C)(CC(C)C)NC(=O)[C@@H](NC(=O)[C@H](CO)NC(=O)[C@H](Cc1ccc(O)cc1)NC(=O)[C@H](CC(=O)O)NC(=O)[C@H](CO)NC(=O)[C@@H](NC(=O)[C@](C)(Cc1ccccc1)NC(=O)[C@@H](NC(=O)CNC(=O)[C@H](CCC(N)=O)NC(=O)C(C)(C)NC(=O)[C@@H](N)Cc1ccc(O)cc1)[C@@H](C)O)[C@@H](C)O)[C@@H](C)CC)C(=O)N[C@@H](CCC(=O)O)C(=O)N[C@@H](Cc1ccccc1)C(=O)N[C@@H](CC(C)C)C(=O)N[C@@H](CC(C)C)C(=O)N[C@@H](CCC(=O)O)C(=O)N[C@@H](CO)C(=O)N[C@@H](Cc1c[nH]cn1)C(=O)N1CCC[C@H]1C(=O)N[C@@H](CO)C(=O)N[C@@H](CO)C(=O)NC(C)(C)C(=O)N[C@@H](Cc1c[nH]cn1)C(=O)N1CCC[C@H]1C(=O)N1CCC[C@H]1C(=O)NC1(C(=O)N[C@@H](CO)C(N)=O)CC1 [Compound 33] (H-Y[Aib]QGT[αMeF]TSDYSI[αMeL]LDKK([AEEA-AEEA-γGlu-C20 diacid])AQ[Aib]AFIEFLLESHPSS[Aib]HPP[Ac3c]S-NH2; N-terminus assumed) | 2262.50 | 4.19 | 92.93 | 231.58 | – | 36.77 | 3.3 | 115.21 | 0.717 | 143.93 | 0.008
